# From US7053234B2 (Amgen Inc., priority 2000, dated 2006)
# Read-outs that look alike come from different tables or passages of the source.
# Columns and labels:
# RNA-pol S. aureus = RNA-pol S. aureus (Staphylococcus aureus, UniProt P47768+Q2G0N5); test: RNA polymerase inhibition assay (S. aureus enzyme); format: biochemical
# S. aureus = test: MIC determination, S. aureus; format: cell-based; conditions: Staphylococcus aureus, read-out: MIC (μM) S. aureus
# Description: The compound is added and two-fold dilutions are made. The final volume in the 96-well plate is about 100 uL. The plate is incubated at 37° C. in the dark with shaking. After 16 hours of incubation, growth is monitored by reading A600 or by visual inspection. […] Methods for dilution antimicrobial susceptibility tests for bacteria that grow aerobically. Approved standard M7-A3; National Committee for Clinical Laboratory Standards: Villanova, Pa.
# E. coli (tolC) = test: MIC determination, E. coli (tolC); format: cell-based; conditions: Escherichia coli, read-out: MIC (μM) E. coli (tolC)
# Description: For MIC determinations for selected bacteria, log phase growing bacteria are re-suspended at 1×10^5 bacteria per mL in LB medium. The compound is added and two-fold dilutions are made. The final volume in the 96-well plate is about 100 uL. The plate is incubated at 37° C. in the dark with shaking. After 16 hours of incubation, growth is monitored by reading A600 or by visual inspection. MIC is defined as the minimum concentration of drug resulting in inhibition of visible growth of bacterial under the conditions described (above) in National Committee for Clinical Laboratory Standards 1993. Methods for dilution antimicrobial susceptibility tests for bacteria that grow aerobically. Approved standard M7-A3; National Committee for Clinical Laboratory Standards: Villanova, Pa.
# [1] = biological target: T1, Sigma^70 saturated E. coli RNA Polymerase (Escherichia coli, UniProt P0A8T7+P0A8V2); test: RNA polymerase inhibition assay (E. coli enzyme); format: biochemical; conditions: Table 2; read-out: RNA-pol IC50 (μM) E. coli
# T1 construct: purchased Epicenter
# Description: The compounds of the present invention can be evaluated for antibacterial activity in a variety of assay formats known to those of skill in art. The specific assays used to select the most appropriate compound for use will typically depend on the targeted bacteria or infection. One common assay involves evaluation of the compounds as RNA polymerase inhibitors. In this assay, buffer (250 mM KCl, 5% Glycerol, 10 mM MgCl2, 0.1 mg/ml BSA) is combined with 6 mM B-M.E., PT5 DNA template, and 1.3 ug/rxn Sigma^70 saturated E. coli RNA Polymerase (Epicenter). The compound is then added in a manner not to exceed 5% DMSO. Nucleotide triphosphates are then added at the following concentration: 250 uM ATP, […] and UTP with 100 uM cold CTP and 50 uM alpha ^32P CTP. The mixture is incubated for 10 min at about 37° C. A [2×] loading buffer is added and the mixture is then run on a 6% urea denaturing PAGE until bromophenol blue reaches the edge of plate. The gel is soaked (about 20 minutes in 10% MeOH and 10% acetic acid, to remove urea), then dried (about 55 minutes at about 85° C. (BioRad Gel Drier)) and exposed to a Phospho Imaging Plate for 1 hour. The plate is then read on a Fujix Bas1000 Imaging System and quantified using MacBas v2.0 software. An IC50 (in uM) can be calculated as the concentration of a drug which reduces the enzyme activity to 50% of the control.
# [2] = Table 2, read-out: RNA-pol IC50 (μM) S. aureus
# T1 sequence (P0A8V2 whole entry): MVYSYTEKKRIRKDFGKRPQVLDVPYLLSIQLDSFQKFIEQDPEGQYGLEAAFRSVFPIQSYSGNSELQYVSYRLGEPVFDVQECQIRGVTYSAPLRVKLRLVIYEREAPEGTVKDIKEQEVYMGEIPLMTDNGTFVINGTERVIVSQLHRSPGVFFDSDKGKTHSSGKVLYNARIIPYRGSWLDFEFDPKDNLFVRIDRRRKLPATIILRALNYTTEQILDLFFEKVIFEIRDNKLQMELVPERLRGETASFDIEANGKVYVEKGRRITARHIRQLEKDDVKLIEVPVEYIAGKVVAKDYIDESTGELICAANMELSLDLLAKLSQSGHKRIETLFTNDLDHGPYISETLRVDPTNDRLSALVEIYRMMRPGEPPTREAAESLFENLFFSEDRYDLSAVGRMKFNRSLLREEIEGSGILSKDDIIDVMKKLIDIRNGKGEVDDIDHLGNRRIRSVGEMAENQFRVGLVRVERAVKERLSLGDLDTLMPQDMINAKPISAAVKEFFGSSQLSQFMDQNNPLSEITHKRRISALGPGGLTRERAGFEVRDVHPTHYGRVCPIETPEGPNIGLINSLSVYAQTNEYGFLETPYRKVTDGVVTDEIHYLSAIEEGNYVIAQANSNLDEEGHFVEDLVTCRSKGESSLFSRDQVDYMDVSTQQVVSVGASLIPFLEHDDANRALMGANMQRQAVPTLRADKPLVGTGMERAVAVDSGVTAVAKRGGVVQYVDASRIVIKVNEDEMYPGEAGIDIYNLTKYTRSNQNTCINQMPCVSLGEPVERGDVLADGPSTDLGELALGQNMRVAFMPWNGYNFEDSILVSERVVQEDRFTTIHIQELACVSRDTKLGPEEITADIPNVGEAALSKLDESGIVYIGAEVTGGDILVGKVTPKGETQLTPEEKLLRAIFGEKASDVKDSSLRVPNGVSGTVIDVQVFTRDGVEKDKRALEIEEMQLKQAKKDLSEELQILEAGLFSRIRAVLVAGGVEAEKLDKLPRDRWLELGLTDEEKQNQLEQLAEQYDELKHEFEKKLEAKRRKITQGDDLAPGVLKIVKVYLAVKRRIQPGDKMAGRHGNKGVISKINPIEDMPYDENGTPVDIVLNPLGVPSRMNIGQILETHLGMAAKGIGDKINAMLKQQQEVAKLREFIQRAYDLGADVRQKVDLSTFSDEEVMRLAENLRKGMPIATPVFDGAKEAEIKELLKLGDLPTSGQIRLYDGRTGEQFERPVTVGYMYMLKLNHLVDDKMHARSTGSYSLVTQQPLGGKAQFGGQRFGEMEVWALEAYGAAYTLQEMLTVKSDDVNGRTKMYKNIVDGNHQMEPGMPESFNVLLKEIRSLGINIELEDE
# T1 sequence (P0A8T7 whole entry): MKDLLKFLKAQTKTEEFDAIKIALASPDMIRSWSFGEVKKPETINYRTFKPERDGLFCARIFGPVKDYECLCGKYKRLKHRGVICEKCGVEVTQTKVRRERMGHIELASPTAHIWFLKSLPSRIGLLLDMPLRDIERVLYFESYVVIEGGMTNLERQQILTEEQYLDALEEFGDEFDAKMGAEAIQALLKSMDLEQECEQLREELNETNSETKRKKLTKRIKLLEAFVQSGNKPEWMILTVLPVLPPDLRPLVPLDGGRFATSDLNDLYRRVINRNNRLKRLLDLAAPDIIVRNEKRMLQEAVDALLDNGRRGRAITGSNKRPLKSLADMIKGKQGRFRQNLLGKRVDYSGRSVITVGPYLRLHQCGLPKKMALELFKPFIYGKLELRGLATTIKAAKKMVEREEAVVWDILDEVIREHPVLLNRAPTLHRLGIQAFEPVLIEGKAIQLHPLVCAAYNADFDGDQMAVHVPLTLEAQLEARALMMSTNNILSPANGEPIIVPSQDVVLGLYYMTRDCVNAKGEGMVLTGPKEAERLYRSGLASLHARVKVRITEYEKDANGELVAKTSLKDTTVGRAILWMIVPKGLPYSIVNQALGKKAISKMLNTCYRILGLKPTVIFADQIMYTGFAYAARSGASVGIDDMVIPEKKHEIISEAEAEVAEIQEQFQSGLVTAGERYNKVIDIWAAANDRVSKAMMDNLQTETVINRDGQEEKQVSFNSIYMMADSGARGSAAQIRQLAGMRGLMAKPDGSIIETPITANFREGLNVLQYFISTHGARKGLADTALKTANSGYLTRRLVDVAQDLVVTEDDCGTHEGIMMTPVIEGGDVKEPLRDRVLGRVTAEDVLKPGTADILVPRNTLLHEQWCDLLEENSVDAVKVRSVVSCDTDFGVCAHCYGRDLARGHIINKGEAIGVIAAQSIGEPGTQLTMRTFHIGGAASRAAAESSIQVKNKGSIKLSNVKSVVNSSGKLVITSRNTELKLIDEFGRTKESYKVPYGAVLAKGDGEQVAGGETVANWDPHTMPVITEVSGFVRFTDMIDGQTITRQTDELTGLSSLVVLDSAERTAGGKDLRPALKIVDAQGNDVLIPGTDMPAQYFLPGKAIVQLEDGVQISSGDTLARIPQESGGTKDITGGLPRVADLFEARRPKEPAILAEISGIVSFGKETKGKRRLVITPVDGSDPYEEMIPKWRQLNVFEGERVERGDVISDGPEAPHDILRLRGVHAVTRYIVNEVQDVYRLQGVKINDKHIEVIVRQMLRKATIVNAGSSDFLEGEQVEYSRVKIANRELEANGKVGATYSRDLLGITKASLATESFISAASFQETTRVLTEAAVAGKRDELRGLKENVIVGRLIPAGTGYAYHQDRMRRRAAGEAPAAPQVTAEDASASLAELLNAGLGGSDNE
# T1 sequence (P0A7Z4 whole entry partner): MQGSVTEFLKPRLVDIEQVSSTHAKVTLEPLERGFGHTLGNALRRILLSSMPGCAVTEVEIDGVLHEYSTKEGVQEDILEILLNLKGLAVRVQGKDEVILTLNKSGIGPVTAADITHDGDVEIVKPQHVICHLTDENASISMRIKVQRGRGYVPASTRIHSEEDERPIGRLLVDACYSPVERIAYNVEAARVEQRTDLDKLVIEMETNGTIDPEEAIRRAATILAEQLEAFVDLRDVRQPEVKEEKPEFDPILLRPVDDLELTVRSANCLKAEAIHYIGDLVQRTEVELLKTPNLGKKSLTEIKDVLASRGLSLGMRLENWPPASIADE
# T1 sequence (P0A800 whole entry partner): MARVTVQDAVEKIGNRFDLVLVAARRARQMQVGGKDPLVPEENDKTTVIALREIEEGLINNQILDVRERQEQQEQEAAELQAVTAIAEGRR
# T1 sequence (P00579 whole entry partner): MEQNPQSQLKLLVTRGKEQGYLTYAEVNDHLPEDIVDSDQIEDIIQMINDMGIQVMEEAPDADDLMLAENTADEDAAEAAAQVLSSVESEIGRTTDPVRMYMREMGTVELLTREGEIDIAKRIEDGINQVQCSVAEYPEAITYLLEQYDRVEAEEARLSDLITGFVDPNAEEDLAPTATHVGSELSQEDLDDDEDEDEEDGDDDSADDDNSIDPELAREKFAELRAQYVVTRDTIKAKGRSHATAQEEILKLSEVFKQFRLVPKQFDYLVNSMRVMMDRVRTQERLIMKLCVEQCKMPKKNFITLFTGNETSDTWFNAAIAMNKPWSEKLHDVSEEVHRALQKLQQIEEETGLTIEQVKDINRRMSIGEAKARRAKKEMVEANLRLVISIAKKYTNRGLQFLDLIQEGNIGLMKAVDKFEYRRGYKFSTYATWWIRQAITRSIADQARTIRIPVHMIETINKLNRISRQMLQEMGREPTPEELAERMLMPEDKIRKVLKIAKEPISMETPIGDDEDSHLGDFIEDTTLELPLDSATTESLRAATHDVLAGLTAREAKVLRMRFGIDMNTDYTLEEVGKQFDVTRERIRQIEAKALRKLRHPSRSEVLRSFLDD
SMILES,IC50 (RNA-pol S. aureus; [2]),MIC (S. aureus; Table 2),MIC (E. coli (tolC)),IC50 [1],IC50 (RNA-pol S. aureus),MIC (S. aureus)
O=C(Nc1cc(NS(=O)(=O)c2ccc(C(F)(F)F)cc2)cc(C(F)(F)F)c1)Nc1ccc(Cl)c(C(F)(F)F)c1 [Compound 122],10 to 50 µM,< 40 µM,> 125 µM,–,–,–
Nc1cc(/C(=N/O)Nc2cccc(Cl)c2)cc(C(F)(F)F)c1F [Compound 116],> 50 µM,< 40 µM,< 40 µM,< 10 µM,–,–
O=C(Nc1ccc(Cl)c(C(F)(F)F)c1)OCc1cc(-n2cccc2)cc(C(F)(F)F)c1 [Compound 137],10 to 50 µM,< 40 µM,< 40 µM,–,–,–
ON=C(Nc1cccc(Cl)c1)c1ccc(NCCc2ccc(O)cc2)c(C(F)(F)F)c1 [Compound 113],–,< 40 µM,< 40 µM,10 to 50 µM,–,–
O=C(Nc1cc(OCc2cccc(Cl)c2)cc(C(F)(F)F)c1)Nc1ccc(Cl)c(C(F)(F)F)c1 [Compound 135],10 to 50 µM,–,> 125 µM,–,–,–
[N-]=[N+]=Nc1cc(/C(=N/O)Nc2cccc(Cl)c2)cc(C(F)(F)F)c1F [Compound 115],> 50 µM,< 40 µM,< 40 µM,> 50 µM,–,–
"O=C(CNc1cccc(Cl)c1)Nc1cc(NC(=O)CNc2cccc(Cl)c2)cc(C(F)(F)F)c1 [Compound 140, 2-(3-Chloro-phenylamino)-N-{3-[2-(3-chloro-phenylamino)-acetylamino]-5-trifluoromethyl-phenyl}acetamide]",–,< 40 µM,> 125 µM,–,–,–
COCC1CCCN1c1cc(NC(=O)CNc2ccc(Cl)c(C(F)(F)F)c2)cc(C(F)(F)F)c1 (stereo not shown) [Compound 129],> 50 µM,< 40 µM,> 125 µM,–,–,–
O=C(CNc1ccc(Cl)c(C(F)(F)F)c1)Nc1cc(NC(=O)COc2ccc(Cl)cc2)cc(C(F)(F)F)c1 [Compound 130],> 50 µM,< 40 µM,> 125 µM,–,–,–
COc1cc(NC(=O)CNc2ccc(Cl)c(C(F)(F)F)c2)cc(C(F)(F)F)c1 [Compound 128],> 50 µM,< 40 µM,< 40 µM,–,–,–
"O=C(Nc1cc(O)cc(C(F)(F)F)c1)Nc1ccc(Cl)c(C(F)(F)F)c1 [Compound 133, 1-(4-Chloro-3-trifluoromethyl-phenyl)-3-(3-hydroxy-5-trifluoromethyl-phenyl)-urea]",10 to 50 µM,< 40 µM,< 40 µM,–,–,–
O=C(Nc1cc(N2CCCC2)cc(C(F)(F)F)c1)Nc1ccc(Cl)c(C(F)(F)F)c1 [Compound 123],< 10 µM,< 40 µM,> 125 µM,–,–,–
O=C(COc1ccc(Cl)cc1)Nc1cc(NC(=O)Nc2ccc(Cl)c(C(F)(F)F)c2)cc(C(F)(F)F)c1 [Compound 121],> 50 µM,< 40 µM,> 125 µM,–,–,–
NS(=O)(=O)c1ccc(CCNc2ccc(C(=NO)Nc3cccc(Cl)c3)cc2C(F)(F)F)cc1 [Compound 114],–,< 40 µM,< 40 µM,< 10 µM,> 50 µM,–
O=C(Nc1cc(N2CCNC2=O)cc(C(F)(F)F)c1)Nc1ccc(Cl)c(C(F)(F)F)c1 [Compound 127],10 to 50 µM,> 125 µM,> 125 µM,–,–,–
"O=C(CNc1ccc(N2CCCCC2)c(C(F)(F)F)c1)Nc1cc(COc2cccc(Cl)c2)cc(C(F)(F)F)c1 [Compound 136, N-[3-(3-Chloro-phenoxymethyl)-5-trifluoromethyl-phenyl]-2-(4-piperidin-1-yl-3-trifluoromethyl-phenylamino)-acetamide]",< 10 µM,< 40 µM,> 125 µM,–,–,–
O=C(CSc1ccccc1)Nc1cc(NC(=O)Nc2ccc(Cl)c(C(F)(F)F)c2)cc(C(F)(F)F)c1 [Compound 120],10 to 50 µM,< 40 µM,< 40 µM,> 50 µM,–,–
ON=C(Nc1cccc(Cl)c1)c1ccc(NCCN2CCNCC2)c(C(F)(F)F)c1 [Compound 112],–,> 125 µM,< 40 µM,10 to 50 µM,> 50 µM,–
C=CCOC(=O)Nc1cc(NC(=O)Nc2ccc(Cl)c(C(F)(F)F)c2)cc(C(F)(F)F)c1 [Compound 119],–,< 40 µM,< 40 µM,–,–,–
Nc1cc(NC(=O)Nc2ccc(Cl)c(C(F)(F)F)c2)cc(C(F)(F)F)c1 [Compound 118],> 50 µM,< 40 µM,< 40 µM,–,–,–
"O=C(CSc1ccccc1)Nc1cc(COC(=O)Nc2ccc(Cl)c(C(F)(F)F)c2)cc(C(F)(F)F)c1 [Compound 139, (4-Chloro-3-trifluoromethyl-phenyl)-carbamic acid 3-(2-phenylsulfanyl-acetylamino)-5-trifluoromethyl benzyl ester]",10 to 50 µM,< 40 µM,< 40 µM,–,–,–
O=C(COc1ccc(Cl)cc1)Nc1cc(NCCNc2nc3cc(Cl)c(Cl)cc3[nH]2)cc(C(F)(F)F)c1 [Compound 131],< 10 µM,< 40 µM,> 125 µM,–,–,–
OCCNc1ccc(C(=NO)Nc2cccc(Cl)c2)cc1C(F)(F)F [Compound 111],–,> 125 µM,< 40 µM,10 to 50 µM,–,–
O=C(Nc1cc(N2CCOCC2)cc(C(F)(F)F)c1)Nc1ccc(Cl)c(C(F)(F)F)c1 [Compound 125],10 to 50 µM,< 40 µM,< 40 µM,–,–,–
COCC1CCCN1c1cc(NC(=O)Nc2ccc(Cl)c(C(F)(F)F)c2)cc(C(F)(F)F)c1 (stereo not shown) [Compound 124],10 to 50 µM,< 40 µM,> 125 µM,–,–,–
CON=C1CCN(c2ccc(C(=NO)Nc3cccc(Cl)c3)cc2C(F)(F)F)C1 [Compound 110],–,40 to 125 µM,> 125 µM,> 50 µM,> 50 µM,–
O=C(Nc1cc(N2CCOC2=O)cc(C(F)(F)F)c1)Nc1ccc(Cl)c(C(F)(F)F)c1 [Compound 126],< 10 µM,> 125 µM,< 40 µM,–,–,–
ON=C1CCN(c2ccc(C(=NO)Nc3cccc(Cl)c3)cc2C(F)(F)F)C1 [Compound 109],–,< 40 µM,< 40 µM,10 to 50 µM,> 50 µM,–
C=CCOc1cc(NC(=O)Nc2ccc(Cl)c(C(F)(F)F)c2)cc(C(F)(F)F)c1 [Compound 134],< 10 µM,–,> 125 µM,–,–,< 40 µM
"COCOc1cc(NC(=O)Nc2ccc(Cl)c(C(F)(F)F)c2)cc(C(F)(F)F)c1 [Compound 132, 1-(4-Chloro-3-trifluoromethyl-phenyl)-3-(3-methoxymethoxy-5-trifluoromethyl-phenyl)-urea]",10 to 50 µM,< 40 µM,< 40 µM,–,–,–
